The supplement of paper PMC8671470

Assays:
Assay in all cases: cell viability (% survival relative to DMSO control); higher = less cytotoxic
Conditions in all cases: 72 h
[1] = system: myeloid leukemia patient primary cells Pat.11
Outline: (§1)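 Thawed mononuclear cells from AML or CML patients were purified on Ficoll and cultured for 72 h in RPMI 1640 with 10% FBS, at 10,000 cells/well, on 384-well plates carrying 70 pre-printed compounds at 1–10,000 nM in five tenfold steps, in duplicate. Viability came from CellTiter-Glo, normalised against DMSO and against 10 μM proteasome inhibitor. Any area under the curve given was derived from log-logistic curve fits in the drc and PharmacoGx R packages, and these fits had four parameters.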

[2] = system: myeloid leukemia patient primary cells Pat.14
Outline: as §1

[3] = system: myeloid leukemia patient primary cells Pat.1
Outline: as §1

[4] = system: myeloid leukemia patient primary cells Pat.4
Outline: as §1

[5] = system: myeloid leukemia patient primary cells Pat.5
Outline: as §1

[6] = system: myeloid leukemia patient primary cells Pat.6
Outline: as §1

[7] = system: myeloid leukemia patient primary cells Pat.7
Outline: as §1

[8] = system: myeloid leukemia patient primary cells Pat.8
Outline: as §1

[9] = system: myeloid leukemia patient primary cells Pat.9
Outline: as §1

BV-173 = system: BV-173
Description: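 8x8 drug-combination matrices (0–5000 nM; rosiglitazone and lestaurtinib 0–1000 nM) were run in BV-173 cells for 72 h with CellTiter-Glo read-out. Survival is normalised to DMSO and 10 µM bortezomib and clipped at 100%.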

O=C(C1CC1)N1CC[C@@H](C=C2NNC(=O)N2c2ccc(-c3ccc4occc4c3)cc2)C1
cell viability [%]
Conditions	[1]	[2]	[3]	[4]	[5]	[6]	[7]	[8]	[9]
1 nM	94.6	92.5	87	79.7	73	98.1	> 100	85.5	95.6
10 nM	98	91.4	89	87.2	> 100	97.7	97.1	95.4	80.9
100 nM	99.7	96.2	> 100	90.8	72.3	> 100	81.9	74	87.2
1000 nM	91.5	77.3	96.2	92.1	35.3	89.4	51.6	92.2	45.5
10000 nM	88	79.5	79.7	71.6	17.1	79.5	71.6	73.2	33.2

C[C@H](NC(=O)c1sccc1OCc1ccc(Cl)cc1)c1ccccc1
cell viability [%]
Conditions	[1]	[2]	[3]	[4]	[5]	[6]	[7]	[8]	[9]
1 nM	93	88.5	94.5	94.6	88.1	> 100	93.1	72.9	84.8
10 nM	> 100	88	95.9	93.6	68.7	98.1	85.3	85.9	59.2
100 nM	> 100	99.3	91	94.1	71.7	99.6	90.3	87.7	79
1000 nM	97.6	99.3	> 100	83.3	19.4	91.5	40.2	> 100	59.2
10000 nM	> 100	1.72	54	39.9	4.74	35.7	< 0	61	1.24

O=C(C1CC1)N1CC[C@@H](C=C2NNC(=O)N2c2ccc(-c3ccc4occc4c3)cc2)C1 + CS(=O)(=O)N1CCN(Cc2cc3nc(-c4cccc5[nH]ncc45)nc(N4CCOCC4)c3s2)CC1 [Pictilisib]
cell viability [%], BV-173
Conditions	drug1 concentration 5 nM	drug1 concentration 10 nM	drug1 concentration 50 nM	drug1 concentration 100 nM	drug1 concentration 500 nM	drug1 concentration 1000 nM	drug1 concentration 5000 nM
drug2 concentration 5 nM	> 100	> 100	95	> 100	84.4	77.5	84.8
drug2 concentration 10 nM	> 100	> 100	> 100	> 100	95.5	> 100	92.2
drug2 concentration 50 nM	> 100	> 100	> 100	> 100	94.4	99.1	59.7
drug2 concentration 100 nM	81	> 100	> 100	94.8	94.3	87.4	> 100
drug2 concentration 500 nM	> 100	> 100	93.8	> 100	> 100	98.7	89.3
drug2 concentration 1000 nM	89.7	99.2	> 100	92.8	80	99.9	78.4
drug2 concentration 5000 nM	87.6	92.1	84.8	> 100	75.7	70.6	> 100

O=C(C1CC1)N1CC[C@@H](C=C2NNC(=O)N2c2ccc(-c3ccc4occc4c3)cc2)C1 + C[C@H](NC(=O)c1sccc1OCc1ccc(Cl)cc1)c1ccccc1 [as1949490]
cell viability [%], BV-173
Conditions	drug1 concentration 5 nM	drug1 concentration 10 nM	drug1 concentration 50 nM	drug1 concentration 100 nM	drug1 concentration 500 nM	drug1 concentration 1000 nM	drug1 concentration 5000 nM
drug2 concentration 5 nM	> 100	> 100	> 100	> 100	91.8	93.3	80.6
drug2 concentration 10 nM	94.1	> 100	> 100	> 100	> 100	> 100	> 100
drug2 concentration 50 nM	> 100	> 100	> 100	85	> 100	88.7	96.7
drug2 concentration 100 nM	> 100	80.2	> 100	88.5	> 100	96	84.7
drug2 concentration 500 nM	85.5	> 100	84.8	> 100	91.2	92.3	77.2
drug2 concentration 1000 nM	> 100	87.6	99.3	> 100	80.2	73.6	58.5
drug2 concentration 5000 nM	65.2	44.9	73.8	46	44.2	57.2	0

O=C(C1CC1)N1CC[C@@H](C=C2NNC(=O)N2c2ccc(-c3ccc4occc4c3)cc2)C1 + O=C(c1c2ccccc2cc2ccccc12)N1CCC(N2CCC[C@@H](C(=O)N3CCOCC3)C2)CC1 [CP-640186]
cell viability [%], BV-173
Conditions	drug1 concentration 5 nM	drug1 concentration 10 nM	drug1 concentration 50 nM	drug1 concentration 100 nM	drug1 concentration 500 nM	drug1 concentration 1000 nM	drug1 concentration 5000 nM
drug2 concentration 5 nM	96.3	> 100	> 100	> 100	97.3	98.1	77.8
drug2 concentration 10 nM	> 100	> 100	87.8	> 100	> 100	96.1	58.3
drug2 concentration 50 nM	> 100	> 100	> 100	> 100	91.1	78.9	97.1
drug2 concentration 100 nM	> 100	> 100	> 100	> 100	> 100	> 100	> 100
drug2 concentration 500 nM	> 100	> 100	> 100	> 100	> 100	> 100	96.6
drug2 concentration 1000 nM	86.4	> 100	> 100	91.9	> 100	> 100	> 100
drug2 concentration 5000 nM	> 100	> 100	87.5	99.5	91.6	> 100	> 100

O=C(O)C1=CC(=C(c2ccc(O)c(C(=O)O)c2)c2ccc(O)c(C(=O)O)c2)C=CC1=O [Aurintricarboxylic acid]
cell viability [%]
Conditions	[1]	[2]	[3]	[4]	[5]	[6]	[7]	[8]	[9]
1 nM	> 100	92.5	92.9	99.3	> 100	99.8	87.2	92.5	> 100
10 nM	95.8	> 100	94.4	81.2	88.3	97.5	94.1	87.6	99
100 nM	> 100	98.6	96.2	83.3	91.7	> 100	> 100	79.7	88
1000 nM	> 100	> 100	> 100	> 100	> 100	> 100	> 100	94.2	> 100
10000 nM	> 100	92.1	> 100	91	> 100	97.7	70.9	79.4	53.2

COC(=O)[C@]12CCC(C)(C)C[C@H]1[C@H]1C(=O)C=C3[C@@]4(C)C=C(C#N)C(=O)C(C)(C)[C@@H]4CC[C@@]3(C)[C@]1(C)CC2 [Bardoxolone methyl]
cell viability [%]
Conditions	[1]	[2]	[3]	[4]	[5]	[6]	[7]	[8]	[9]
1 nM	> 100	73.4	85.8	84.5	65.9	99.8	97.6	67.7	65.1
10 nM	91.2	72.5	68.1	96.4	47.9	81.4	67.2	97.5	25.4
100 nM	87.7	47	61.9	33.3	5.56	75	2.85	78.5	0.492
1000 nM	> 100	2.03	61.3	70	6.86	17.6	< 0	9.52	0.773
10000 nM	7.29	25.8	2.44	1.48	7.88	72.1	< 0	61.5	3.59

Cc1c(-c2ccc(-c3ccccc3F)cc2)nc2ccc(F)cc2c1C(=O)O [Brequinar]
cell viability [%]
Conditions	[1]	[2]	[3]	[4]	[5]	[6]	[7]	[8]	[9]
1 nM	97.9	89.4	93.1	0.431	66.1	> 100	81.2	91.5	88.1
10 nM	> 100	81.1	89.3	90.6	60.8	> 100	87.1	82	59.6
100 nM	> 100	73.4	97.5	94.7	47.9	93.9	62	78	36.9
1000 nM	> 100	65.6	92.2	87.5	33.1	97.8	60.6	97.6	50
10000 nM	97.7	32.3	88.6	86.4	6.89	96.8	55.3	88.4	10.6

O=C1O/C(=C/Br)CCC1c1cccc2ccccc12 (configuration not stated) [Bromoenol Lactone]
cell viability [%]
Conditions	[1]	[2]	[3]	[4]	[5]	[6]	[7]	[8]	[9]
1 nM	> 100	78.2	68.2	64.7	44.7	91.1	57.6	75.9	66
10 nM	94.6	83.5	90.4	93.3	34.4	89.2	75.8	91.1	39.3
100 nM	99.2	73.9	79.3	85.8	7.92	> 100	76.4	70	46.4
1000 nM	87.7	21.8	69.3	53.4	1.18	86	30	81.3	5.6
10000 nM	57.2	< 0	14.6	3.26	2.24	33.1	< 0	30	0.492

Nc1nc(Cl)nc2c1ncn2[C@H]1C[C@H](O)[C@@H](CO)O1 [Cladribine]
cell viability [%]
Conditions	[1]	[2]	[3]	[4]	[5]	[6]	[7]	[8]	[9]
1 nM	> 100	90.7	95.2	99	50.7	95.1	97.6	88.1	84.9
10 nM	96.6	75.3	98.3	55.6	35.2	74.3	82.8	77.7	34
100 nM	76.6	17.3	> 100	13.5	9.01	19.2	17.1	12.6	< 0
1000 nM	59.8	3.16	90.3	4.74	0.265	6.84	< 0	3.65	1.24
10000 nM	63.8	0.937	94.1	6.11	1.33	6.92	< 0	3.19	4.28
